Laboratory results from paper PMC12767106, “In Situ Assembly of Transformable Monopeptide on Activated Neutrophils Attenuates NETs‐Induced Hepatocellular Carcinoma Metastasis by Disrupting NE Nuclear Translocation” (Advanced Science, 2025).

System: subcutaneous Hepa1-6/luc tumors
Assay: Immune profiling of tumors by flow cytometry, plasma cytokines by ELISA
Assay type: in vivo, mouse
Settings: tumor-bearing mice
Procedure: Submitted to Advanced Science
Total RNA was extracted and purified using a miRNeasy Mini Kit (FOREGENE, China). Quantitative real-time polymerase chain reaction (qRT-PCR) was performed in triplicate in the ABI 7500 fast real-time PCR System (Applied Biosystems, USA). The mRNAs were normalized with 18s. The following primers were used for PCR detection: E-cadherin, N-cadherin, Vimentin, and α-catenin.
Western blot analysis was performed to evaluate the levels of relative proteins in Hepa1-6/luc cells and Neutrophils.38 To evaluate NETs release, the neutrophils were exposed to PMA, PMA+NFTP -NPs, and PMA+FTP-NPs for 12 h. Following treatment, the cells underwent three PBS washes for WB to measure the expression of CitH3 proteins (Cat. no. ab5103, Abcam, Cambridge, England , UK). Furthermore, to evaluate EMT of Hepa1-6/luc cells, the cells underwent three PBS washes for WB to measure the expression of E - cadherin (Abmart, China), N-cadherin (Abmart, China), Vimentin (Abmart, China) , and β-catenin (Abmart, […]
In vivo subcutaneously implanted tumor models
The C57BL/6J mice with subcutaneous Hepa1-6/luc xenografts (grew up to roughly 100 mm 3) were separated into four groups according to the different treatments to perform the in vivo tumor therapy. PBS, NFTP-NPs, FTP-NPs, and NEi (300 µM in PBS: DMSO = 95:5, 200 µL) were administered intravenously (i.v.) five times every two days to mice. aPD-1 (BE0146, Bio X Cell, USA) was injected intraperitoneally into each mouse at 200μg once every 4 days for 3 doses. Throughout the experiment, the tumor volumes and body weight were measured once every four days. The formula tumor volume=length*1/2 width2 was used to get the tumor volume; at the same time, IVIS (AniView SE, Guangzhou Biolight Biotechnology Co., Ltd) was used to calculate bioluminescence signals in vivo. After therapy (day 20), major organs and blood samples were taken for histological and biochemical investigation as part of a safety assessment. […]
TNF-α, were measured using commercially available ELISA kits to assess the immune activation induced by […]

PpIX-GFFVLK-EAIPMSIPPEVK [FTP-NPs] was tested, and the “plasma IL-6 level” value was “significantly higher”, the “plasma IL-10 level” value was “decreased” and the “plasma TNF-α level” value was “significantly higher”.
